This data set in a line: Photostability of oily Parsol 1789/block copolymer mixture as a thin coat on a glass plate, xenon lamp irradiation, absorption spectrophotometry. The conditions noted are these: mixture with Tegomer SE-1010; thin coat about 10 microns on glass plate, in presence of oxygen; UV-A 22 J/cm^2, 20 minutes. Type of data set: physicochemical. The method, then:
The Parsol® 1789 was dispersed in the Tegomer SE-1010 with heating at 40° C. for 60 minutes. The mixture was allowed to cool to room temperature. The oily mixture was ready for use.
The oily mixture was evaluated in the form of a thin coat of about 10 microns deposited on a glass plate (microscope slide), in the presence of oxygen.
An irradiation was then performed, using an Ostram-Centra Uvimeter equipped with a xenon lamp, under the following conditions: • Energy of the UV-A lamp: 22 J/cm^2 • Irradiation time of the simulator=20 minutes
These conditions correspond to about one hour of solar UV-A sunshine.
The photodegradation was monitored by absorption spectrophotometry. The following results were obtained: • 1) The mixture was able to form a film and the quality of the film was not impaired by the irradiation. • 2) 100% of the Parsol® 1789 was recovered after this exposure.

SMILES strings stand for the structures.

With `COc1ccc(C(=O)CC(=O)c2ccc(C(C)(C)C)cc2)cc1` [Parsol® 1789, 4-(tert-butyl)-4′-methoxydibenzoylmethane], the “Parsol 1789 recovered after exposure” value was 100%.
